Our source for the IC50 values is patent publication US20260325540A1 (priority 2023, published 2026).

For this assay, the target named is HCoV-229E 3CL protease (Human coronavirus 229E, UniProt P0C6U2). As to the kind of experiment: FRET based protease assay, HCoV-229E 3CL. Format: biochemical. As to conditions: 229E IC50, 6 nM H229E-CoV Chis-3CLpro, 6 μM peptide 1 substrate, 25° C., 1.5 hrs, pH 7.5.
Chain of HCoV-229E 3CL protease (P0C6U2 2966-3267): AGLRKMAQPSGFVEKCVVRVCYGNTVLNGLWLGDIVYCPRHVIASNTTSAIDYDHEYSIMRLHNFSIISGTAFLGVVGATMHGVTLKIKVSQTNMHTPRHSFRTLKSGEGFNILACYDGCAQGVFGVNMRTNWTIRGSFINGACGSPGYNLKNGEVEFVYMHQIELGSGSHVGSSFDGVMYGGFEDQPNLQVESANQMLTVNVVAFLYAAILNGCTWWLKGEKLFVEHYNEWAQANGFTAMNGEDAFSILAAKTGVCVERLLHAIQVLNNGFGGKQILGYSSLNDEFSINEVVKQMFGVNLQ
On to `CC1(C)[C@@H]2[C@H]3C(=O)N[C@H](C#N)C[C@@H]4C(=O)NC[C@@H]4CCCC[C@H](NC(=O)c4ccc(F)cc4F)C(=O)N3C[C@@H]21` [Example 103], for which the IC50 is below 100 nM. `CC1(C)[C@@H]2[C@H]3C(=O)N[C@H](C#N)C[C@@H]4C(=O)NCC[C@@H]4CCCC[C@H](NC(=O)C(F)(F)F)C(=O)N3C[C@@H]21` [Example 104] displayed an IC50 below 100 nM. The same measure for `CC(C)(C)OC(=O)N[C@H]1CCCC[C@H]2CNC(=O)[C@H]2C[C@@H](C#N)NC(=O)[C@@H]2CC3(CC3)CN2C1=O` [Example 105]: below 100 nM. The same measure for `CC(C)(C)COC(=O)N[C@H]1CCCC[C@H]2CNC(=O)[C@H]2C[C@@H](C#N)NC(=O)[C@@H]2[C@@H]3[C@H](CN2C1=O)C3(C)C` [Example 106]: below 100 nM. The same measure for `CC1(C)[C@@H]2[C@H]3C(=O)N[C@H](C#N)C[C@@H]4C(=O)NC[C@@H]4CCCC[C@H](NC(=O)c4cncnc4)C(=O)N3C[C@@H]21` [Example 107]: below 100 nM. On to `CC1(C)[C@@H]2[C@H]3C(=O)N[C@H](C#N)C[C@@H]4C(=O)NC[C@@H]4/C=C/CC[C@H](NC(=O)C(F)(F)F)C(=O)N3C[C@@H]21` [Example 108], for which the IC50 was below 100 nM. As to `Cc1cc(C(=O)N[C@H]2CCCC[C@H]3CNC(=O)[C@H]3C[C@@H](C#N)NC(=O)[C@@H]3[C@@H]4[C@H](CN3C2=O)C4(C)C)on1` [Example 109], the IC50 is below 100 nM.

The compound `CC(C)(C)OC(=O)N[C@H]1CCCC[C@H]2CCNC(=O)[C@H]2C[C@@H](C#N)NC(=O)[C@@H]2[C@@H]3[C@H](CN2C1=O)C3(C)C` [Example 110] displayed an IC50 below 100 nM.

As to `CC(C)(C)OC(=O)N[C@H]1CCCC[C@H]2CNC(=O)[C@H]2C[C@@H](C#N)NC(=O)[C@@H]2[C@H]3CC[C@H](CC3)N2C1=O` [Example 111], the IC50 is 100 to 1000 nM.

Compound `CC(C)(C)OC(=O)N[C@H]1CC/C=C/[C@H]2CNC(=O)[C@H]2C[C@@H](C#N)NC(=O)[C@@H]2[C@H]3CCC[C@H]3CN2C1=O` [Example 112] returned an IC50 below 100 nM. In the case of `Cc1nc(C(=O)N[C@H]2CCCC[C@H]3CNC(=O)[C@H]3C[C@@H](C#N)NC(=O)[C@@H]3[C@@H]4[C@H](CN3C2=O)C4(C)C)cs1` [Example 113], the IC50 was in the range of 100 to 1000 nM.

As for `CC(C)(C)OC(=O)N[C@H]1CC/C=C\[C@H]2CCNC(=O)[C@H]2C[C@@H](C#N)NC(=O)[C@@H]2[C@@H]3[C@H](CN2C1=O)C3(C)C` [Example 114], the IC50 was below 100 nM. `Cc1nc(C(=O)N[C@H]2CCCC[C@H]3CNC(=O)[C@H]3C[C@@H](C#N)NC(=O)[C@@H]3[C@@H]4[C@H](CN3C2=O)C4(C)C)co1` [Example 115] gave an IC50 below 100 nM. In turn, `CC1(C)[C@@H]2[C@H]3C(=O)N[C@H](C#N)C[C@@H]4C(=O)NC[C@@H]4CCCC[C@H](NC(=O)c4ccc(F)c(C(F)(F)F)c4)C(=O)N3C[C@@H]21` [Example 116] gave an IC50 below 100 nM. Compound `CC1(C)[C@@H]2[C@H]3C(=O)N[C@H](C#N)C[C@@H]4C(=O)NC[C@@H]4CCCC[C@H](NC(=O)C4(C(F)(F)F)CC4)C(=O)N3C[C@@H]21` [Example 117] came in with a half-inhibitory concentration (IC50) below 100 nM.

Regarding `CC1(C(=O)N[C@H]2CCCC[C@H]3CNC(=O)[C@H]3C[C@@H](C#N)NC(=O)[C@@H]3[C@@H]4[C@H](CN3C2=O)C4(C)C)CCC1` [Example 118], the IC50 is below 100 nM. The same measure for `CC1(C)[C@@H]2[C@H]3C(=O)N[C@H](C#N)C[C@@H]4C(=O)NC[C@@H]4CCCC[C@H](NC(=O)C45CC(C(F)(F)F)(C4)C5)C(=O)N3C[C@@H]21` [Example 119]: below 100 nM. The same measure for `CC1(C)[C@@H]2[C@H]3C(=O)N[C@H](C#N)C[C@@H]4C(=O)NC[C@@H]4CCCC[C@H](NC(=O)c4ccc(Cl)c(Cl)c4)C(=O)N3C[C@@H]21` [Example 120]: below 100 nM; for `CC(C)(C(=O)N[C@H]1CCCC[C@H]2CNC(=O)[C@H]2C[C@@H](C#N)NC(=O)[C@@H]2[C@@H]3[C@H](CN2C1=O)C3(C)C)c1ccc(Cl)cc1` [Example 121]: below 100 nM; for `Cc1cc(C(=O)N[C@H]2CCCC[C@H]3CNC(=O)[C@H]3C[C@@H](C#N)NC(=O)[C@@H]3[C@@H]4[C@H](CN3C2=O)C4(C)C)no1` [Example 122]: below 100 nM. The same measure for `CC1(C(=O)N[C@H]2CCCC[C@H]3CNC(=O)[C@H]3C[C@@H](C#N)NC(=O)[C@@H]3[C@@H]4[C@H](CN3C2=O)C4(C)C)COC1` [Example 123]: below 100 nM; for `CC1(C)[C@@H]2[C@H]3C(=O)N[C@H](C#N)C[C@@H]4C(=O)NCC[C@@H]4CCCC[C@H](NC(=O)OC4CCCC4)C(=O)N3C[C@@H]21` [Example 124]: below 100 nM; for `CC(C)(C)OC(=O)N[C@H]1CCC[C@H]2CNC(=O)[C@H]2C[C@@H](C#N)NC(=O)[C@@H]2[C@@H]3[C@H](CN2C(=O)C1)C3(C)C` [Example 125]: 100 to 1000 nM. `CC(C)(C)OC(=O)N[C@@]1(C)CCCCC[C@H]2CNC(=O)[C@H]2C[C@@H](C#N)NC(=O)[C@@H]2[C@@H]3[C@H](CN2C1=O)C3(C)C` [Example 126] displayed an IC50 above 20000 nM.

As for `CC(C)(C)OC(=O)N[C@H]1CCCC[C@H]2CNC(=O)[C@H]2C[C@@H](C#N)NC(=O)[C@@H]2[C@H]3CC[C@H](C3)N2C1=O` [Example 127], the IC50 lay within 1000 to 20000 nM. `CC(C)(C)OC(=O)N[C@@H]1CCCC[C@H]2CNC(=O)[C@H]2C[C@@H](C#N)NC(=O)[C@@H]2[C@@H]3[C@H](CN2C1=O)C3(C)C` [Example 128] yielded an IC50 above 20000 nM. The same measure for `CC1(C)[C@@H]2[C@H]3C(=O)N[C@H](C#N)C[C@@H]4C(=O)NCC[C@@H]4CCCC[C@H](NC(=O)c4ccc(F)cc4F)C(=O)N3C[C@@H]21` [Example 129]: below 100 nM. The same measure for `CC1(C)C[C@H]2C(=O)N[C@H](C#N)C[C@@H]3C(=O)NC[C@@H]3CCCC[C@H](NC(=O)OC(C)(C)C)C(=O)N2C1` [Example 130]: below 100 nM. The compound `CC(C)(C)OC(=O)N[C@H]1CCCC[C@H]2CNC(=O)[C@H]2C[C@@H](C#N)NC(=O)[C@@H]2CC(F)(F)CN2C1=O` [Example 131] showed an IC50 of 1000 to 20000 nM.

With `CC(C)(C)OC(=O)N[C@H]1CCCC[C@H]2CNC(=O)[C@H]2C[C@@H](C#N)NC(=O)[C@@H]2CC3(CCN2C1=O)CC3` [Example 132], the IC50 is below 100 nM. The same measure for `CC1(C)[C@@H]2[C@H]3C(=O)N[C@H](C#N)C[C@@H]4C(=O)NC[C@@H]4CCCC[C@H](NC(=O)c4cc(Cl)ccc4Cl)C(=O)N3C[C@@H]21` [Example 133]: below 100 nM; for `CC1(C)[C@@H]2[C@H]3C(=O)N[C@H](C#N)C[C@@H]4C(=O)NC[C@@H]4CCCC[C@H](NC(=O)c4cccc(Cl)c4Cl)C(=O)N3C[C@@H]21` [Example 134]: below 100 nM.

For `CC1(C)[C@@H]2[C@H]3C(=O)N[C@H](C#N)C[C@@H]4C(=O)NCC[C@@H]4CCCC[C@H](NC(=O)C45CC(C(F)(F)F)(C4)C5)C(=O)N3C[C@@H]21` [Example 135], the IC50 fell in the range of 100 to 1000 nM.

Regarding `CC(C)(C)C[C@@H]1NC(=O)[C@@H](NC(=O)c2ccc(Cl)c(Cl)c2)CCCC[C@H]2CNC(=O)[C@H]2C[C@@H](C#N)NC1=O` [Example 136], the IC50 is below 100 nM. The same measure for `CC(C)(C)OC(=O)N[C@H]1CCCC[C@H]2CNC(=O)[C@H]2C[C@@H](C#N)NC(=O)[C@H](CC2CCCC2)NC1=O` [Example 137]: below 100 nM; for `CC(C)(F)C[C@@H]1NC(=O)[C@@H](NC(=O)OC(C)(C)C)CCCC[C@H]2CNC(=O)[C@H]2C[C@@H](C#N)NC1=O` [Example 138]: 100 to 1000 nM.

One may read the IC50 as the concentration that gives 50% inhibition. A higher IC50 goes with lower potency.
